Laboratory results: PubChem BioAssay AID330 (DTP/NCI, 2004)
“And” between values parts separate entries of the source, which are not always exact repeats. Equal entries are not always repeated. Inconclusive results and toxic doses are left out. How the source made its calls: active means survival T/C of 150% or more; inactive means T/C below 125% in these data. Bridge positions count the residues as written; N and C are the ends. Peptide text beside a SMILES is read from it. I, II: the chains in the order shown. * marks the point of attachment. Quinoxaline2carbonyl = O=C(c1cnc2ccccc2n1)*

Tested on: P388 leukemia ip, CD2F1 mice, survival T/C
Experiment: NCI In Vivo Anticancer Drug Screen. Data for tumor model P388 Leukemia (intraperitoneal) in CD2F1 (CDF1) mice
Settings: endpoint: median survival time, higher = longer survival
How it was run: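 Mice carrying the transplanted tumor received test compound or vehicle. Survival was recorded in each group, and the value is the treated-group measurement divided by that of the vehicle-treated control group.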

[1] = dose: 50.0 mg/kg/injection, schedule: Q01DX005 (ip), vehicle: Klucel (hydroxypropylcellulose) (HPC)
[2] = dose: 100.0 mg/kg/injection, schedule: Q01DX005 (ip), vehicle: Klucel (hydroxypropylcellulose) (HPC)
[3] = dose: 200.0 mg/kg/injection, schedule: Q01DX005 (ip), vehicle: Klucel (hydroxypropylcellulose) (HPC)
[4] = dose: 50.0 mg/kg/injection, schedule: Q01DX009 (ip), vehicle: saline with Tween-80
[5] = dose: 100.0 mg/kg/injection, schedule: Q01DX009 (ip), vehicle: saline with Tween-80
[6] = dose: 200.0 mg/kg/injection, schedule: Q01DX009 (ip), vehicle: saline with Tween-80
[7] = dose: 50.0 mg/kg/injection, schedule: Q01DX005 (ip), vehicle: saline with Tween-80
[8] = dose: 100.0 mg/kg/injection, schedule: Q01DX005 (ip), vehicle: saline with Tween-80
[9] = dose: 200.0 mg/kg/injection, schedule: Q01DX005 (ip), vehicle: saline with Tween-80
[10] = dose: 50.0 mg/kg/injection, schedule: Q01DX009 (ip), vehicle: Klucel (hydroxypropylcellulose) (HPC)
[11] = dose: 100.0 mg/kg/injection, schedule: Q01DX009 (ip), vehicle: Klucel (hydroxypropylcellulose) (HPC)
[12] = dose: 200.0 mg/kg/injection, schedule: Q01DX009 (ip), vehicle: Klucel (hydroxypropylcellulose) (HPC)
[13] = dose: 60.0 mg/kg/injection, schedule: Q01DX005 (ip), vehicle: saline with Tween-80
[14] = dose: 60.0 mg/kg/injection, schedule: Q01DX005 (ip), vehicle: Klucel (hydroxypropylcellulose) (HPC)
[15] = dose: 120.0 mg/kg/injection, schedule: Q01DX005 (ip), vehicle: saline with Tween-80
[16] = dose: 240.0 mg/kg/injection, schedule: Q01DX005 (ip), vehicle: saline with Tween-80

Measured: T/C

COc1cc(/C=N/NC(=O)c2ccc(NC(C)=O)cc2)ccc1O
inactive: [1] 90 % of control | [2] 90 % of control | [3] 90 % of control

CC1(C)CC2(C)OC2C2(C1)N=NC(=Nc1ccccc1)O2 (stereo not given)
inactive: [4] 105 % of control and 92 % of control | [5] 120 % of control and 97 % of control | [6] 108 % of control

Cc1cn2c(n1)sc1ccccc12
inactive: [7] 96 % of control | [8] 95 % of control | [9] 95 % of control

FC(F)(F)C1(C(F)(F)F)OI2(Br)(OC(C(F)(F)F)(C(F)(F)F)c3ccccc32)c2ccccc21
inactive: dose: 6.25 mg/kg/injection, schedule: Q01DX005 (ip), vehicle: Klucel (hydroxypropylcellulose) (HPC) 99 % of control | dose: 12.5 mg/kg/injection, schedule: Q01DX005 (ip), vehicle: Klucel (hydroxypropylcellulose) (HPC) 97 % of control

COc1ccc2c(c1OC)CN1CCc3cc4c(cc3C1C2)OCO4 (stereo not given)
inactive: [1] 105 % of control and 91 % of control | [2] 100 % of control and 94 % of control | [3] 96 % of control and 94 % of control

O=C(O)C(O)COc1nsnc1N1CCOCC1 (stereo not given)
inactive: [10] 107 % of control | [11] 102 % of control | [12] 107 % of control

CC1(C)N=c2cc3c(cc2N1c1ccc(Cl)cc1)=Nc1ccccc1N3c1ccc(Cl)cc1
inactive: dose: 7.5 mg/kg/injection, schedule: Q01DX005 (ip), vehicle: saline with Tween-80 99 % of control | dose: 15.0 mg/kg/injection, schedule: Q01DX005 (ip), vehicle: saline with Tween-80 90 % of control | dose: 30.0 mg/kg/injection, schedule: Q01DX005 (ip), vehicle: saline with Tween-80 87 % of control | [13] 89 % of control

CN1OC(=O)OC(C)(c2ccccc2)C1=O (stereo not given)
inactive: [7] 98 % of control | [8] 97 % of control | [9] 97 % of control

CC1(c2ccccc2)CCC(O)CC1CC(=O)O (stereo not given)
inactive: [7] 98 % of control | [8] 100 % of control | [9] 101 % of control

COc1ccc2c(c1O)C1=CC(O)CCC13CCN(C)C3C2 (stereo not given)
inactive: dose: 100.0 mg/kg/injection, schedule: Q04DX002 (ip), vehicle: suspension in saline 100 % of control | dose: 200.0 mg/kg/injection, schedule: Q04DX002 (ip), vehicle: suspension in saline 96 % of control | dose: 400.0 mg/kg/injection, schedule: Q04DX002 (ip), vehicle: suspension in saline 103 % of control

Cc1ccc(N=Nc2c(O)ccc3n[nH]nc23)cc1
inactive: [10] 99 % of control | [11] 101 % of control and 105 % of control | dose: 100.0 mg/kg/injection, schedule: Q04DX003 (ip), vehicle: Klucel (hydroxypropylcellulose) (HPC) 100 % of control | [12] 99 % of control and 109 % of control | dose: 200.0 mg/kg/injection, schedule: Q04DX003 (ip), vehicle: Klucel (hydroxypropylcellulose) (HPC) 100 % of control | dose: 400.0 mg/kg/injection, schedule: Q01DX009 (ip), vehicle: Klucel (hydroxypropylcellulose) (HPC) 100 % of control and 109 % of control | dose: 400.0 mg/kg/injection, schedule: Q04DX003 (ip), vehicle: Klucel (hydroxypropylcellulose) (HPC) 93 % of control

Cc1cc(Cl)ccc1NC(=O)/N=C1\NC(=O)CS1
inactive: [4] 87 % of control | [5] 100 % of control | [6] 110 % of control

CCCCN(CCCC)C(=S)S
inactive: dose: 15.0 mg/kg/injection, schedule: Q01DX005 (ip), vehicle: Klucel (hydroxypropylcellulose) (HPC) 105 % of control | dose: 30.0 mg/kg/injection, schedule: Q01DX005 (ip), vehicle: Klucel (hydroxypropylcellulose) (HPC) 98 % of control | [14] 88 % of control

CCn1c(Cl)c(/C=N/NC(N)=S)c2cccc(/C=N\NC(N)=S)c21
inactive: dose: 100.0 mg/kg/injection, schedule: Q01DX001 (ip), vehicle: Klucel (hydroxypropylcellulose) (HPC) 97 % of control | dose: 200.0 mg/kg/injection, schedule: Q01DX001 (ip), vehicle: Klucel (hydroxypropylcellulose) (HPC) 87 % of control | dose: 400.0 mg/kg/injection, schedule: Q01DX001 (ip), vehicle: Klucel (hydroxypropylcellulose) (HPC) 97 % of control

O=[N+]([O-])c1ccc(N2C(c3ccccc3)=N[C@@H](N3CCOCC3)[C@@H]2N2CCOCC2)cc1
inactive: [1] 101 % of control | [2] 97 % of control | [3] 95 % of control

CC1NC(=O)C(NC(=O)c2cnc3ccccc3n2)COC(=O)C(C(C)C)NC(=O)C2CSSCC(NC1=O)C(=O)NC(C(C)C)C(=O)OCC(NC(=O)c1cnc3ccccc3n1)C(=O)NC(C)C(=O)N2 (stereo not given) (I: Quinoxaline2carbonyl-SACV / II: Quinoxaline2carbonyl-SACV; ester I:1-II:C, I:C-II:1; disulfide I:3-II:3; configuration not given here)
inactive: dose: 1.25 mg/kg/injection, schedule: Q01DX005 (ip), vehicle: Klucel (hydroxypropylcellulose) (HPC) 96 % of control | dose: 2.5 mg/kg/injection, schedule: Q01DX005 (ip), vehicle: Klucel (hydroxypropylcellulose) (HPC) 98 % of control | dose: 5.0 mg/kg/injection, schedule: Q01DX005 (ip), vehicle: Klucel (hydroxypropylcellulose) (HPC) 95 % of control | dose: 10.0 mg/kg/injection, schedule: Q01DX005 (ip), vehicle: Klucel (hydroxypropylcellulose) (HPC) 90 % of control | dose: 20.0 mg/kg/injection, schedule: Q01DX005 (ip), vehicle: Klucel (hydroxypropylcellulose) (HPC) 95 % of control | dose: 40.0 mg/kg/injection, schedule: Q01DX005 (ip), vehicle: Klucel (hydroxypropylcellulose) (HPC) 93 % of control | [14] 95 % of control

Cc1cc2c(cc1C)NC1=C(N2)OC(c2c[nH]c3ccc(COc4ccccc4)cc23)C1=O (stereo not given)
inactive: [13] 92 % of control | [15] 90 % of control | [16] 92 % of control

N#CNC1=NC(c2ccccc2)CC=C1 (stereo not given)
inactive: [4] 102 % of control | [5] 113 % of control

O=C1CCCCCCCCCC/C1=N/O
inactive: [4] 99 % of control | [5] 89 % of control | [6] 96 % of control

CCCCCCCCC(=O)CC
inactive: [5] 118 % of control | dose: 100.0 mg/kg/injection, schedule: Q04DX003 (ip), vehicle: saline 104 % of control | [6] 109 % of control | dose: 200.0 mg/kg/injection, schedule: Q04DX003 (ip), vehicle: saline 100 % of control | dose: 400.0 mg/kg/injection, schedule: Q04DX003 (ip), vehicle: saline 95 % of control

CCOC(=O)/C(C#N)=N/Nc1ccc(S(=O)(=O)NC(C)=O)cc1
inactive: [1] 96 % of control | [2] 92 % of control | [3] 96 % of control

CC(C)(Br)C(=O)/C=C/c1ccc(Cl)cc1
inactive: [13] 108 % of control | [15] 104 % of control | [16] 114 % of control

CCc1c(CO)c(CO)c(-c2ccccc2)n1CCn1c(CC)c(CO)c(CO)c1-c1ccccc1
inactive: dose: 100.0 mg/kg/injection, schedule: Q01DX001 (ip), vehicle: saline with Tween-80 96 % of control | dose: 200.0 mg/kg/injection, schedule: Q01DX001 (ip), vehicle: saline with Tween-80 88 % of control | dose: 400.0 mg/kg/injection, schedule: Q01DX001 (ip), vehicle: saline with Tween-80 96 % of control

Br/N=C1/C=CC=C/C1=N/Br
inactive: dose: 25.0 mg/kg/injection, schedule: Q01DX005 (ip), vehicle: saline 105 % of control and 108 % of control | dose: 50.0 mg/kg/injection, schedule: Q01DX005 (ip), vehicle: saline 107 % of control and 110 % of control | dose: 100.0 mg/kg/injection, schedule: Q01DX005 (ip), vehicle: saline 100 % of control and 107 % of control and 123 % of control | dose: 200.0 mg/kg/injection, schedule: Q01DX005 (ip), vehicle: saline 98 % of control and 100 % of control and 106 % of control

O=C(O)C1=C(C(=O)O)C2c3ccccc3C1c1ccccc12
inactive: [7] 99 % of control | [8] 90 % of control | [9] 103 % of control
